Data from patent US6506876B1, “LTA4 hydrolase inhibitor pharmaceutical compositions and methods of use” (G.D. Searle & Co., priority 1994, dated 2003).
Read-outs that look alike come from different tables or passages of the source.

Key:
[1] = target: T1, recombinant human LTA4 hydrolase (rhLTA4H) (Homo sapiens, UniProt P09960); experiment: Recombinant human LTA4 hydrolase assay for LTA4 hydrolase inhibitor activity; conditions: for IC50: Recombinant Human LTA4 Hydrolase Assay IC50 LTA4H
T1 sequence (P09960 1-611): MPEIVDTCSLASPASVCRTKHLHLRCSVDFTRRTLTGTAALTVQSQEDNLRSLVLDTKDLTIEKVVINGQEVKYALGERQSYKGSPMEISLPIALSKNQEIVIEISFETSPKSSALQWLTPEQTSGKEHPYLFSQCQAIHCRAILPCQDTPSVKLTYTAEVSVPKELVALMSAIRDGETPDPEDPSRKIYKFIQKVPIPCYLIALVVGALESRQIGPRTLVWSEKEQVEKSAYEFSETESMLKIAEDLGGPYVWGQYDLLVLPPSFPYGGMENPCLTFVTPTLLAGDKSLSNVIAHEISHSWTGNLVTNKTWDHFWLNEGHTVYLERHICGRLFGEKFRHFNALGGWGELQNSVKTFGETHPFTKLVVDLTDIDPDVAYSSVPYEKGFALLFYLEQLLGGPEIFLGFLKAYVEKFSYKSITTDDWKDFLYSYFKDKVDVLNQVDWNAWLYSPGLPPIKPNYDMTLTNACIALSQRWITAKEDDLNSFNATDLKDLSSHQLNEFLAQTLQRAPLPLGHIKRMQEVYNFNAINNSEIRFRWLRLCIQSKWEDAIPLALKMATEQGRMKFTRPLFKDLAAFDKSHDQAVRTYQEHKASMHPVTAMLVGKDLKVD

[2] = tested on: LTB4 production in mouse blood (LTA4 hydrolase); experiment: Ex vivo LTB4 production by calcium ionophore stimulated mouse blood after oral dosing; assay type: in vivo
Method: Ex Vivo LTB4 and Thromboxane Production by Calcium Ionophore Stimulated Mouse Blood for LTA4 Hydrolase Inhibitor Activity
Leukotriene A4 hydrolase inhibitor compounds of the present invention were diluted to a predetermined concentration in phosphate buffered saline containing 2% DMSO and 1% Tween 80. The compounds were administered by oral gavage to adult male outbred mice weighing approximately 20-30 gm at a dose of 10 mg/kg body weight. (Compounds given at a dose of 50 mg/kg body weight are designtated in following Table by the symbol, *.) Sixty (60) minutes after administration of an LTA4 inhibitor compound of the invention, blood was collected (into heparin-containing tubes) from the retroorbital sinus. […] The mixture was incubated for 10 minutes at 37° C. in a humidified incubator. The reaction was terminated by centrifugation (833 g, 10 minutes at 4° C.). Supernatants were analyzed for LTB4 and thromboxane by commercially available enzyme-linked immunoassays (Caymen Chemical Co., Ann Arbor, Mich.] in accordance with the manufacturer's instructions. The percent inhibition was determined by comparison to animals treated identically except that the solution admininstered by oral gavage was devoid of inhibitor compound.

[3] = mouse, oral gavage, 1 hour after administration of 10 mg/kg; read-out: Murine Ex Vivo LTB4 Inhibition % I LTB4
[4] = Mus musculus, po, 1 h, read-out: Murine Ex Vivo LTB4 Inhibition % I LTB4
[5] = Mus musculus, po, 1 h; read-out: Murine Ex Vivo LTB4 Inhibition % I LTB4

IC50 ([1]; recombinant hLTA4H) [nM]	Compound	inhibition in vivo at 10 mg/kg [2, 3] [%]	also measured
120	C[C@@H]1C[C@H](C(N)=O)CCN1CCOc1ccc(Cc2ccccc2)cc1 (relative stereo) [Example 297]	63	
300	C[C@H]1C[C@@H](O)CCN1CCOc1ccc(Cc2ccccc2)cc1 (relative stereo) [Example 465]	38	
60	CC(=O)N[C@@H]1CCN(CCOc2ccc(Cc3ccccc3)cc2)[C@@H](C)C1 (relative stereo) [Example 467]	71	
140	c1ccc(Cc2ccc(OCCCn3cnc4ncccc43)cc2)cc1 [341 B]	29	
1900	c1ccc(COc2ccc(OCCn3cnc4ncccc43)cc2)cc1 [346 B]	23	
1800	c1ccc(COc2ccc(OCCn3cnc4ccncc43)cc2)cc1 [347 A]	34	
1900	c1ccc(COc2ccc(OCCn3cnc4cnccc43)cc2)cc1 [347 B]	43	
5	c1ccc(COc2ccc(OCCn3ccc4ncnc-4c3)cc2)cc1 [347 C]	52	
4600	c1ccc(Oc2ccc(OCCn3cnc4cccnc43)cc2)cc1 [348 A]	42	
440	c1ccc(Oc2ccc(OCCn3cnc4ncccc43)cc2)cc1 [348 B]	22	
290	c1ccc(Oc2ccc(OCCn3cccc4ncnc3-4)cc2)cc1 [348 C]	77	
480	c1ccc(Oc2ccc(OCCn3cnc4ccncc43)cc2)cc1 [349 A]	78.5	
300	c1ccc(Oc2ccc(OCCn3cnc4cnccc43)cc2)cc1 [349 B]	48	
13	c1ccc(Oc2ccc(OCCn3ccc4ncnc-4c3)cc2)cc1 [349 C]	52	
550	c1ccc(Oc2ccc(OCCCn3cnc4ncccc43)cc2)cc1 [350 B]	38	
620	c1ccc(Oc2ccc(OCCCn3cccc4ncnc3-4)cc2)cc1 [350 C]	35	
43	c1ccc(Oc2ccc(OCCCn3ccc4ncnc-4c3)cc2)cc1 [351 C]	42	
280	Fc1ccc(Oc2ccc(OCCn3cnc4ncccc43)cc2)cc1 [354 B]	32	
480	Fc1ccc(Oc2ccc(OCCn3cccc4ncnc3-4)cc2)cc1 [354 C]	6	
1370	Fc1ccc(Oc2ccc(OCCn3cnc4ccncc43)cc2)cc1 [355 A]	44	
870	Fc1ccc(Oc2ccc(OCCn3cnc4cnccc43)cc2)cc1 [355 B]	37	

IC50 ([1]; recombinant hLTA4H) [nM]	Compound	inhibition in vivo at 10 mg/kg [2, 3] [%]	also measured
28	Fc1ccc(Oc2ccc(OCCn3ccc4ncnc-4c3)cc2)cc1 [355 C]	48	
350	c1ccc(Cc2ccc(OCCCn3cnc4ccncc43)cc2)cc1 [356 A]	14	
170	c1ccc(Cc2ccc(OCCCn3cnc4cnccc43)cc2)cc1 [356 B]	33	
100	c1ccc(Cc2ccc(OCCCn3ccc4ncnc-4c3)cc2)cc1 [356 C]	48	
	c1ccc(Cc2ccc(OCCn3cnc4ncncc43)cc2)cc1 [357 A]		IC50 [1]: 47 nM; inhibition in vivo at 10 mg/kg [2, 4]: 57%
	c1ccc(Oc2ccc(OCCN3CCCC3)cc2)cc1 [Example 44]		inhibition in vivo at 10 mg/kg [2, 4]: 25%
	c1nc(Cc2ccc(OCCN3CCCC3)cc2)cs1 [Example 49, 4-[[4-[2-(1-pyrrolidinyl)ethoxy]phenyl]methyl]thiazole]		inhibition in vivo at 10 mg/kg [2, 4]: 46%
	FC(F)(c1ccccc1)c1ccc(OCCN2CCCC2)cc1 [Example 67, 1-[2-[4-[(difluoro)phenylmethyl]phenoxy]ethyl]pyrrolidine]		Murine Ex Vivo LTB4 Inhibition % I LTB4 ([2]; mouse, oral gavage, 1 hour after administration of 10 mg/kg): 0%
	c1ccc(Cc2ccc(OCCN3CCCC3)nc2)cc1 [Example 112]		inhibition in vivo at 50 mg/kg [2, 4]: 82%
	c1csc(Cc2ccc(OCCN3CCCC3)cc2)n1 [Example 121]		inhibition in vivo at 10 mg/kg [2, 4]: 48%
	c1ncc(Cc2ccc(OCCN3CCCC3)cc2)s1 [Example 122]		inhibition in vivo at 10 mg/kg [2, 4]: 57%
	c1cncc(Cc2ccc(OCCN3CCCC3)cc2)c1 [Example 125]		inhibition in vivo at 10 mg/kg [2, 4]: 46%
	c1cc(Cc2ccc(OCCN3CCCC3)cc2)cs1 [Example 134]		inhibition in vivo at 10 mg/kg [2, 4]: 63%
	COC(=O)CC1CCN(CCOc2ccc(Cc3ccccc3)cc2)C1 (stereo not drawn) [Example 275]	75	
	COC(=O)C1CCN(CCOc2ccc(Cc3ccccc3)cc2)C1 (stereo not drawn) [Example 276]	75	
	COC(=O)CC1CC2CC1CN2CCOc1ccc(Cc2ccccc2)cc1 (stereo not drawn) [Example 304]		inhibition in vivo at 10 mg/kg [2, 4]: 80%
	CN(CCCOc1ccc(Cc2ccc(F)cc2)cc1)CCC(=O)O [Example 336]		inhibition in vivo at 10 mg/kg [2, 5]: 99%
	c1ccc(Cc2ccc(OCCN3CCCCC3)cc2)cc1 [Example 401]		inhibition in vivo at 10 mg/kg [2, 4]: 23%
	CC1CCCC(C)N1CCOc1ccc(Cc2ccccc2)cc1 (stereo not drawn) [Example 402]		inhibition in vivo at 10 mg/kg [2, 4]: 58%
	C#CC(CC(=O)OCC)NCCOc1ccc(Cc2ccccc2)cc1 (stereo not drawn) [Example 408]		inhibition at 100 µM ([1]; read-out: Recombinant Human LTA4 Hydrolase Assay, % at 100 μM): 76%
12000	C=CCN(CCCOc1ccc(Cc2ccccc2)cc1)CCC(=O)OCc1ccccc1 [Example 409]		

IC50 ([1]; recombinant hLTA4H) [nM]	Compound	inhibition in vivo at 10 mg/kg [2, 3] [%]	also measured
33000	C=CCN(CCCCOc1ccc(Cc2ccccc2)cc1)CCC(=O)OCC [Example 410, Ethyl [[4-[4-(Phenylmethyl)phenoxyl]-butyl](2-propenyl)amino]propanoate]		
2400	CN(CCCOc1ccc(Cc2ccccc2)cc1)CCC(=O)OCc1ccccc1 [Example 411]		
	CCOC(=O)CCN(C)CCCOc1ccc(Cc2ccccc2)cc1 [Example 412]	72	
11000	CCOC(=O)CCN(CCCOc1ccc(Cc2ccccc2)cc1)Cc1cccnc1 [Example 414]		
5000	CCOC(=O)CCN(C)CCCCOc1ccc(Cc2ccccc2)cc1 [Example 415]		
4300	CC(CN(C)CCCOc1ccc(Cc2ccccc2)cc1)C(=O)OCc1ccccc1 (stereo not drawn) [Example 417]		
12000	CN(CCCOc1ccc(Cc2ccccc2)cc1)CC(C)(C)C(=O)OCc1ccccc1 [Example 418]		
	CNC(=O)C1CCN(CCOc2ccc(Cc3ccccc3)cc2)CC1 [Example 420]		inhibition in vivo at 10 mg/kg [2, 5]: 93%
410	NC(=O)CCNC(=O)C1CCN(CCOc2ccc(Cc3ccccc3)cc2)CC1 [Example 421]		
330	NC(=O)CCNCCCOc1ccc(Cc2ccccc2)cc1 [Example 423]		
	NC(=O)CC1CCN(CCOc2ccc(Cc3ccccc3)cc2)C1 (stereo not drawn) [Example 426]	40	
720	O=C(O)C1CCN(CCOc2ccc(Cc3cccc(F)c3)cc2)CC1 [Example 436]		
30	COC(=O)C1CC2CC1CN2CCOc1ccc(Cc2ccccc2)cc1 (stereo not drawn) [Example 440]		
300	CC1CC(C#N)CCN1CCOc1ccc(Cc2ccccc2)cc1 (stereo not drawn) [Example 444]		
330	CC1CC(C(N)=NO)CCN1CCOc1ccc(Cc2ccccc2)cc1 (stereo not drawn) [Example 445]		
140	N=C(N)C1CCN(CCOc2ccc(Cc3ccccc3)cc2)CC1 [Example 449]		
	c1ccc(Cc2ccc(OCCN3CCC(c4nnn[nH]4)CC3)cc2)cc1 [Example 450]		inhibition in vivo at 10 mg/kg [2, 4]: 91%
560	NC(=S)N1CCN(CCOc2ccc(Cc3ccccc3)cc2)CC1 [Example 458]		
84000	CS(=O)(=O)N1CCN(CCOc2ccc(Cc3ccccc3)cc2)CC1 [Example 460]		
29	COC(=O)C1CC2CC1CN(CCOc1ccc(Cc3ccccc3)cc1)C2 (stereo not drawn) [Example 504]		

Compound	IC50 ([1]; recombinant hLTA4H) [nM]	inhibition in vivo at 10 mg/kg [2, 3] [%]	also measured
O=C(O)C1CCN(CCOc2ccc(Cc3ccc(F)cc3)cc2)CC1 [Example 438]	3200		
O=C(O)C1CCN(CCOc2ccc(Cc3ccsc3)cc2)CC1 [Example 439]	18000		
